# According to paper PMC8306139, “A Novel Dialkylamino-Functionalized Chalcone, DML6, Inhibits Cervical Cancer Cell Proliferation, In Vitro, via Induction of Oxidative Stress, Intrinsic Apoptosis and Mitotic Catastrophe” (Molecules, 2021):
# What was measured:
# caspase-3 = assay: Western blot, cleaved caspase-3; format: cell-based; conditions: OV2008, 5 or 20 µM, vs vehicle
# Experimental: (§1) The OV2008 cells were lysed to obtain total cellular protein fractions using Mammalian Protein Extraction Reagent (Catalog # 78501, M-PER™, Thermo Fisher Scientific, Waltham, MA, USA). The cells were seeded in […] at a density of 1 × 10^6 and incubated with 5 or 20 µM of DML6 or 1 µM of doxorubicin (Catalog # T1-2-, TargetMol, Boston, MA, USA) (a positive control) for 24 h. The following day, the cells were washed with ice-cold PBS, scraped using a cell scrapper and collected in Eppendorf tubes. The tubes were centrifuged at 1500 RPM at 4 °C for 5 min. The solution was discarded and replaced with 70 µL of the cell lysis buffer (M-PER reagent, 100 mM Sodium Orthovanadate (NaOV) at a final concentration of 2.5 mM) and a 100X protease inhibitor cocktail (Catalog # P8340, Sigma-Aldrich, St. Louis, MO, USA, final concentration of 1X, containing of aprotinin, bestatin, E-64, leupeptin and pepstatin). Thirty minutes later, the resulting solution was centrifuged at 10,000 RPM at 4 °C for 5 min and the supernatant was collected. The protein concentration of the cell extracts was determined using the bicinchoninic acid (BCA) (Catalog # 786-570, G-Biosciences, Saint Louis, MO, USA) quantification assay. […] Finally, the amount of protein in each blot was quantified using the Image J software (NIH, Bethesda, MD, USA). All data were calculated as a ratio to β-actin.
# DU145 = assay: MTT assay, DU145; format: cell-based; conditions: Homo sapiens, DU-145, 72 h, read-out: IC50 ± SD Prostate DU145
# Experimental: (§2) The concentration of the tested compounds that produced a 50% inhibition of cell growth (IC50) was determined.
# (§3) A panel of cancer cell lines, including cervical (OV2008 and HeLa), breast (MDA-MB-231), lung (A549) and colon (LOVO), prostate (DU145), human embryonic kidney cells (HEK293), human colon fibroblast cells (CRL1459), and Chinese hamster ovary cells (CHO), were grown as adherent monolayers in flasks containing Dulbecco’s modified Eagle medium (DMEM), supplemented with 10% fetal bovine serum (FBS) and 1% penicillin and streptomycin, in a humidified incubator with 5% CO2 at 37 °C.
# The cells were seeded evenly (180 μL/well) in 96-well plates, at a density of 3000–5000 cells/well and incubated with serial dilutions of the compounds ranging from 0.1 to 100 μM. The MTT dye (4 mg/ml) was added after 72 h of incubation and incubated with the cells for an additional 4 h at 37 °C, allowing the viable cells to biotransform the yellow-colored MTT into dark-blue formazan crystals. Following incubation, the medium was aspirated, and the formazan crystals were dissolved by adding 100 μL of DMSO to each well. Cytation™ 5 and Cytation™ 7 multi-mode detector (Bio Tek Instruments, Winooski, VT, USA) was used to determine the absorbance readings at a wavelength of 570 nm. The IC50 values were determined based on 3 separate experiments, with each experiment carried out in triplicate.
# Bcl-2 = assay: Western blot, Bcl-2; format: cell-based; conditions: OV2008, 20 μM, 24 h, vs vehicle
# Experimental: as §1
# [1] = system: Chinese hamster ovary cells (CHO)
# Experimental: as §2, §3
# The cells were seeded evenly (180 μL/well) in 96-well plates, at a density of 3000–5000 cells/well and incubated with serial dilutions of the compounds ranging from 0.1 to 100 μM. […] Cytation™ 5 and Cytation™ 7 multi-mode detector (Bio Tek Instruments, Winooski, VT, USA) was used to determine the absorbance readings at a wavelength of 570 nm. The IC50 values were determined based on 3 separate experiments, with each experiment carried out in triplicate. The selectivity of the compounds was determined by comparing their IC50 values in cervical cancer compared to the normal epithelial cell lines, HEK293, CHO, and CRL1459.
# OV2008 cells [2] = assay: Cell cycle analysis, flow cytometry with propidium iodide; format: cell-based; conditions: for percentage of cells in the G2 phase / percentage of cells in the G1 phase: 24 h; for percentage of cells in the G2 phase: vehicle 4.18%; for percentage of cells in the G1 phase: vehicle 85.99%
# Experimental: Cell cycle analysis was conducted using flow cytometry cell cycle analysis with propidium iodide (PI) as previously described. OV2008 cells were plated into 6-well plates at 2.5 × 10^5 cells/well. The cells were incubated with the vehicle, 5 or 20 μM of DML6 for 24 h. The next day, the cells were trypsinized with 0.25% trypsin, 2.21 mM EDTA, 1X, washed, counted, and resuspended in 1ml of ice-cold PBS. The cells were then stained with 200 µL (50 µg/ml stock solution propidium iodide (PI) dye and incubated for at least 15 min. The distribution of the cells in each phase of the cell cycle after incubation with the vehicle or DML6 was determined using A BD FACSCanto™ flow cytometer (BD Biosciences, Becton-Dickinson, San Jose, CA, USA) and analyzed using FCS Express 7 plus De Novo software (Glendale, CA, USA).
# OV2008 = assay: MTT assay, OV2008; format: cell-based; conditions: 72 h, read-out: IC50 ± SD Cervical OV2008
# Experimental: as §2, §3
# The cells were seeded evenly (180 μL/well) in 96-well plates, at a density of 3000–5000 cells/well and incubated with serial dilutions of the compounds ranging from 0.1 to 100 μM. The MTT dye (4 mg/ml) was added after 72 h of incubation and incubated with the cells for an additional 4 h at 37 °C, allowing the viable cells to biotransform the yellow-colored MTT into dark-blue formazan crystals. Following incubation, the medium was aspirated, and the formazan crystals were dissolved by adding 100 μL of DMSO to each well. Cytation™ 5 and Cytation™ 7 multi-mode detector (Bio Tek Instruments, Winooski, VT, USA) was used to determine the absorbance readings at a wavelength of 570 nm. The IC50 values were determined based on 3 separate experiments, with each experiment carried out in triplicate. The selectivity of the compounds was determined by comparing their IC50 values in cervical cancer compared to the normal epithelial cell lines, HEK293, CHO, and CRL1459.
# OV2008 cells [3] = assay: Reactive oxygen species detection (H2DCFDA); format: cell-based; conditions: 5 or 20 μM, 24 h, vs vehicle
# Experimental: The total intracellular level of reactive oxygen species (ROS) was determined by staining the cells with 2,7-dichlorofluorescein diacetate (H2DCFDA). In this assay, cellular esterases cleave the nonfluorescent H2DCFDA molecule to yield H2DCF, by removing the lipophilic moiety (a diacetate group). Subsequently, H2DCF is oxidized by ROS to 2′-7′dichlorofluorescein (DCF), which is a highly fluorescent dye. ROS levels were quantified based on the fluorescence level of DCF detected using EVOS microscope.
# The compound, […] (H2DCFDA), was used to detect ROS as previously described. OV2008 cells were seeded at a density of 250,000 cells/ml. After 24 h of incubation with the vehicle, 5 or 20 µM of DML6, the cells were incubated with H2DCFDA for 30 min at 37 °C. The cells were washed 3 times with 1X PBS for 5 min. The levels of reactive oxygen species were then determined based on the fluorescence level of the oxidized DCFDA dye (excitation at 485 nm and emission at 535), using a EVOS digital fluorescent microscope at 20× magnification.
structure (smiles),measurement,setting,value
"CN(C)c1ccc(/C=C/C(=O)c2ccc(Cl)cc2Cl)cc1 [DML6, (E)-1-[2,4-dichlorophenyl]-3-(4-(dimethylamino)phenyl)prop-2-en-1-one]",cleavage (activation) of caspase-3,caspase-3,significantly increased the cleavage
same,IC50,DU145,96.9 ± 4.4 µM
same,levels of the anti-apoptotic protein Bcl-2,Bcl-2,significantly decreased
same,"cytotoxicity in normal cells, CHO",[1],did not produce significant cytotoxicity
same,percentage of cells in the G2 phase,OV2008 cells [2]; 5 μM,42.56%
same,percentage of cells in the G1 phase,OV2008 cells [2]; 5 μM,16.01%
same,percentage of cells in the G2 phase,OV2008 cells [2]; 20 μM,59.96%
same,percentage of cells in the G1 phase,OV2008 cells [2]; 20 μM,27.84%
same,change of percentage of cells in the sub G1 phase,"OV2008 cells [2]; 5 or 10 µM, vs vehicle",neither 5 or 10 µM of DML6 significantly altered
same,IC50,OV2008,7.8 µM
same,levels of DCF fluorescence (ROS),OV2008 cells [3],significantly higher
